Legend:
[1] = system: Cp/Heph double knockout (DKO) mice; assay: Retinal histology of Cp/Heph DKO mice given oral deferiprone in drinking water; assay type: in vivo, mouse
Description: (§1) In the following examples, double knockout (DKO) mice were used where the mice were genetically modified to generate a deficiency in the ferroxidase ceruloplasmin (Cp) and its homologue hephaestin (Heph). These mice develop age-related retinal degeneration due to retinal iron accumulation, as do humans. Since the knockout affects all tissues and organs, they also develop other symptoms of localized iron excess, with a simultaneous inability to adequately utilize the available iron for normal homeostasis, such as making new hemoglobin (they have low hematocrits). These animals also develop neurological deficits, including ataxia and die at an early age, typically 6-9 months, although some may survive to 12 or 13 months with significant impaired ability to function The retinas of these Cp/Heph deficient mice accumulate iron in the RPE and photoreceptor outer segments in an age-dependent manner, then develop RPE and photoreceptor degeneration with subretinal neovascularization and sub-RPE wide-spaced collagen deposits. Cp/Heph DKO mice develop retinal, brain, liver, and heart iron overload with iron deficiency anemia. In untreated DKOs, iron gets trapped in the tissues and is not returned to the blood, leading to iron deficiency anemia. There is an age-dependent tissue iron buildup with retinal and brain degeneration.
(§2) Eye Drop Administration: Beginning at age 5 months (when elevated retinal iron levels are detected), mice were given deferiprone eye drops (10 mg/ml) three times a day in one eye and control water eye drops in the other eye for two months, with the last drop given 2 h prior to sacrifice. Eyes were fixed in 2% paraformaldehyde/2% glutaraldehyde then sectioned for analysis of morphology (following staining with Toluidine Blue) and iron content (following staining with Perls' Prussian Blue). The number and length of retinal pigment epithelial (RPE) cell hypertrophy and photoreceptor atrophy areas were quantified in deferiprone-treated vs. water-treated control eyes. The intensity of Perls' stain in the ciliary body, retina and RPE were assessed in digital photomicrographs quantifying pixel density.
Oral Administration: DKO mice were given deferiprone in their drinking water at a concentration of (1 mg/ml). The mice typically drink 5 ml of water a day and weigh 30 g. Mice began drinking deferiprone/water at age 7 months since that is the time such mice normally develop the retinal changes consistent with AMD. The animals were sacrificed at various time points that are known to represent significant retinal and neurological damage in untreated animals and the eyes of sacrificed animals were analyzed as noted above.

retinal iron = assay: Perls' stain of retinal iron in DKO mice, oral deferiprone; assay type: in vivo; conditions: 13 month old DKO mouse, PO 1 mg/ml in drinking water for 9 months, vs untreated DKO
Description: FIG. 4 illustrates three Perls' stains of 7 and 13 month old untreated DKO mice retinas (FIGS. 4A and 4B, respectively) and of a treated 13 month old DKO mouse (FIG. 4C). The following abbreviations appear in the Figures: RPE, retinal pigment epithelium; ONL, outer nuclear layer; OPL, outer plexiform layer; IPL, inner plexiform layer; GCL, ganglion cell layer. Scale bar: 50 μm.
as §2, with “Eyes were fixed in 2% paraformaldehyde/2% glutaraldehyde then sectioned for analysis of morphology (following staining with Toluidine Blue) and iron content (following staining with Perls' Prussian Blue).” left out
(§3) Oral Administration: DKO mice were given deferiprone in their drinking water at a concentration of (1 mg/ml). […] The animals were sacrificed at various time points that are known to represent significant retinal and neurological damage in untreated animals and the eyes of sacrificed animals were analyzed as noted above. […]

[2] = cited from earlier work
[3] = system: eye of Hra:(NZW)SPF rabbits; assay: Sensitivity testing of eye drops: ocular irritation/corrosion (Draize, sodium fluorescein); assay type: in vivo, rabbit
Procedure: The ocular irritation/corrosion potential of the product was assessed by instilling approximately 0.1 mL at a concentration of about 13 mg/mL into the everted lower lid of the right eye of 3 male Hra:(NZW)SPF rabbits; the left eye served as the untreated control. Approximately 24 hours after instillation, the treated eyes were examined for corneal injury and washed using room-temperature physiological saline.

[4] = system: transferrin receptor messenger ribonucleic acid (TfR mRNA); assay: TfR mRNA by qPCR in RPE/choroid after deferiprone eye drops; assay type: in vivo, mouse; conditions: eye drops 10 mg/ml three times a day for two months, right eye treated vs left eye control
Procedure: FIG. 3 is a graph illustrating the amount of transferrin receptor messenger ribonucleic acid (TfR mRNA) in the RPE/choroid from a treated eye and an untreated eye. The error bars represent SD of 3 PCR reactions using the same batch of mRNA template.
as §2
The mouse had the right eye (OD) treated with deferiprone topically (in the form of the eye drops, 10 mg/ml) three times a day for two months, whereas the left eye (OS) was used as an internal control. The last administration was given 2 h prior to sacrifice. Relative quantification of TfR mRNA was detected by qPCR. […]

[5] = system: transferrin Receptor (TfR) mRNA; assay: TfR mRNA by qPCR in retina and RPE/choroid of wild type mice, oral deferiprone; assay type: in vivo, mouse; conditions: 1 mg/ml in drinking water PO for 11 days, n=4, vs untreated
Procedure: FIG. 2 is two graphs showing relative quantification of transferrin Receptor (TfR) mRNA levels in the retinas and retinal pigment epithelia (RPE)/choroids of deferiprone treated and untreated wild type mice in retinas (FIG. 2A) and in RPE/choroids (FIG. 2B). The treated mice (n=4) were given deferiprone for 11 days PO (1 mg/ml in the drinking water). […] Relative quantification of TfR expression is also shown for the RPE/choroids (See FIG. 2B) of treated in comparison to untreated animals.

[6] = system: Cp/Heph double knockout (DKO) mice; assay: Survival (Kaplan-Meier) and ataxia of DKO mice, oral deferiprone; assay type: in vivo, mouse
Description: FIG. 7 is a Kaplan-Meier survival curve for deferiprone treated and untreated DKO mice.
In the following examples, double knockout (DKO) mice were used where the mice were genetically modified to generate a deficiency in the ferroxidase ceruloplasmin (Cp) and its homologue hephaestin (Heph). These mice develop age-related retinal degeneration due to retinal iron accumulation, as do humans. Since the knockout affects all tissues and organs, they also develop other symptoms of localized iron excess, with a simultaneous inability to adequately utilize the available iron for normal homeostasis, such as making new hemoglobin (they have low hematocrits). […]
Oral Administration: DKO mice were given deferiprone in their drinking water at a concentration of (1 mg/ml). […] The animals were sacrificed at various time points that are known to represent significant retinal and neurological damage in untreated animals and the eyes of sacrificed animals were analyzed as noted above.
(P<0.0001). The lifespan of the treated animals is an under-estimate, as these mice were sacrificed for iron quantification before they became sick. […]

[7] = Hematocrit in DKO mice, oral deferiprone; assay type: in vivo, mouse
Description: as §1, with “Cp/Heph DKO mice develop retinal, brain, liver, and heart iron overload with iron deficiency anemia. In untreated DKOs, iron gets trapped in the tissues and is not returned to the blood, leading to iron deficiency anemia. There is an age-dependent tissue iron buildup with retinal and brain degeneration.” left out
as §3

Cc1c(O)c(=O)ccn1C [deferiprone]
retina appearance (toluidine blue plastic sections) ([1]; 14 month Cp/Heph knockout, oral deferiprone for 5 months, FIG. 1): appears normal except for a few mildly hypertrophic RPE cells | retinal degeneration and damage ([1]; DKO mice 12-14 months old, deferiprone 1 mg/ml in drinking water for 5-7 months): almost no retinal degeneration and damage | retinal tissue histology ([1]; DKO mice, deferiprone 1 mg/ml PO in drinking water for 6-9 months, FIG. 5): near normal tissue | areas of RPE hypertrophy, share of the retina involved ([1]; most severely affected regions, DKO mice, deferiprone 1 mg/ml PO for 6-9 months, untreated more than 90%): < 10% | retinal iron (Perls' stain) (retinal iron): decreased retinal iron | half life ([2]; humans): about 2 hours | agranulocytosis, share of patients ([2]; thalassemia patients, oral doses 75 to 100 mg/kg/day): about 1% | eye irritation, Draize score ([3]; 0.1 mL of about 13 mg/mL into right eye of 3 male rabbits, 1, 24, 48 and 72 hours after instillation): 0 | corneal injury, sodium fluorescein test ([3]; about 24 hours post dose, about 13 mg/mL, rabbits): no injury to the cornea | TfR mRNA in RPE/choroid (relative quantification) [4]: siqnificant TfR mRNA increase | TfR mRNA levels in retinas (relative quantification, standardized to 18S RNA) [5]: significant up regulation of TfR mRNA levels | TfR expression in RPE/choroids (relative quantification) ([5]; P<0.05): significant difference | ataxia ([6]; DKO mice, 1 mg/ml in drinking water, 2 mice at 14 months and 2 at 12 months): some mild ataxia | median survival ([6]; treated DKO mice, LogRank test, untreated 7 months, P<0.0001): 13 months | hematocrit, mean value ([7]; deferiprone-treated DKO mice n=7, untreated mean 24.6%, P<0.05): 36.7% | hematocrit at time of sacrifice ([7]; treated DKO mice 12 and 14 months old, 1 mg/ml in drinking water 5-7 months, untreated 19-26%): 30-50%
